{"source": "paper PMC12040169", "about": "(PLOS Biology, 2025)", "data": [{"assay": "in vitro", "conditions": "human, hela cells, % viability", "units": {"viability at 28.5 h, 10 µM": "%"}, "values": [{"smiles": "O=C(c1cc(O)nc2ccccc12)N1CCN(S(=O)(=O)N2CCCC2)CC1", "note": "[CBK297898]", "viability at 28.5 h, 10 µM": 88.6}, {"smiles": "CC(OC(=O)c1ccc2nccnc2c1)c1cccc([N+](=O)[O-])c1", "note": "(stereo not drawn) [CBK297901]", "viability at 28.5 h, 10 µM": 78.5}, {"smiles": "OC(COc1ccccc1F)CSc1nc(NC2CC2)c2ccccc2n1", "note": "(stereo not drawn) [CBK297902]", "viability at 28.5 h, 10 µM": 86.7}, {"smiles": "Cc1[nH]c2ccccc2c1C(=O)CSc1nccn1Cc1ccccc1", "note": "[CBK297905]", "viability at 28.5 h, 10 µM": 76.6}, {"smiles": "COc1ccc(C(=O)Nc2c(C)nn(-c3ccccc3)c2C)cc1S(=O)(=O)NC1CC1", "note": "[CBK297906]", "viability at 28.5 h, 10 µM": 85.7}, {"smiles": "Cc1ccc(-c2n[nH]c(=S)n2CC(=O)N(C)Cc2ccc(N3CCOCC3)cc2)cc1", "note": "[CBK297908]", "viability at 28.5 h, 10 µM": 85.9}, {"smiles": "C=CCn1c(-c2sc(NC(=O)CN3C(=C)c4ccccc4C3=O)nc2C)n[nH]c1=S", "note": "[CBK297909]", "viability at 28.5 h, 10 µM": 84.4}, {"smiles": "CC(C)C(=O)N1CCN(C(=O)Cn2c(-c3ccc(Cl)cc3)n[nH]c2=S)CC1", "note": "[CBK297910]", "viability at 28.5 h, 10 µM": 100}, {"smiles": "Cc1ccc(S(=O)(=O)N2CCCN(CC(O)c3ccccc3)CC2)cc1", "note": "(stereo not drawn) [CBK297911]", "viability at 28.5 h, 10 µM": 104}, {"smiles": "Cc1[nH]c2ccccc2c1C(=O)CSc1nncc2ccccc12", "note": "[CBK297912]", "viability at 28.5 h, 10 µM": 92.1}, {"smiles": "COc1ccc(O)c(C(=O)c2cnn(-c3ccc(Cl)c(C(=O)O)c3)c2)c1", "note": "[CBK297914]", "viability at 28.5 h, 10 µM": 90.2}, {"smiles": "CN(C)c1cc(CNC(=O)c2cc3ccccc3oc2=O)ccn1", "note": "[CBK297917]", "viability at 28.5 h, 10 µM": 88.8}, {"smiles": "CN(C)C(=O)CN1CCN(C(=O)c2ccccc2C(=O)c2ccc(F)cc2)CC1", "note": "[CBK297921]", "viability at 28.5 h, 10 µM": 89.5}, {"smiles": "Cc1ccc(-c2n[nH]c(=S)n2CCC(=O)NCc2ccc(-c3csc(C)n3)s2)cc1", "note": "[CBK297924]", "viability at 28.5 h, 10 µM": 84.5}, {"smiles": "CSc1nc(C)c(CCC(=O)N(C)Cc2c(C)nn(-c3ccccc3)c2C)c(=O)[nH]1", "note": "[CBK297925]", "viability at 28.5 h, 10 µM": 84.5}, {"smiles": "COC(=O)c1cc(C#N)c(=O)n(CC(=O)Nc2ccc(OC)c(OC)c2)c1", "note": "[CBK297926]", "viability at 28.5 h, 10 µM": 102}, {"smiles": "Cc1nn(Cc2ccccc2)c(C)c1CNC(=O)c1nc(Cl)ccc1Cl", "note": "[CBK297928]", "viability at 28.5 h, 10 µM": 93.8}, {"smiles": "CC(=O)c1ccccc1NC(=O)c1cc2ccc(F)cc2nc1C", "note": "[CBK297929]", "viability at 28.5 h, 10 µM": 89.2}, {"smiles": "CC(C)CN1CCOC(CNC(=O)c2cc(O)nc3ccccc23)C1", "note": "(stereo not drawn) [CBK297931]", "viability at 28.5 h, 10 µM": 80.6}, {"smiles": "Cc1nc2ccccc2nc1COC(=O)c1ccc(S(=O)(=O)N2CCCCC2C)cc1", "note": "(stereo not drawn) [CBK297932]", "viability at 28.5 h, 10 µM": 90.7}, {"smiles": "O=C(NCC1(N2CCOCC2)CCCCC1)c1ccccc1C(=O)c1ccc(F)cc1", "note": "[CBK297938]", "viability at 28.5 h, 10 µM": 81}, {"smiles": "Cc1cccc(-c2n[nH]c(=S)n2CC(=O)NCc2cn(-c3ccccc3)nc2-c2ccccc2)c1", "note": "[CBK297941]", "viability at 28.5 h, 10 µM": 88.1}, {"smiles": "Cc1cccc(-c2n[nH]c(=S)n2CC(=O)NCCCS(=O)(=O)Cc2ccccc2)c1", "note": "[CBK297942]", "viability at 28.5 h, 10 µM": 103}, {"smiles": "COc1ccc(NS(=O)(=O)c2cc(C(=O)O)sc2Br)cn1", "note": "[CBK297943]", "viability at 28.5 h, 10 µM": 81.8}, {"smiles": "COc1ccc(NC(=O)C2CC3CCC2C3)cc1S(=O)(=O)Nc1ccc(Cl)cc1", "note": "(stereo not drawn) [CBK297945]", "viability at 28.5 h, 10 µM": 79.4}, {"smiles": "Cc1cc(S(=O)(=O)Nc2ccc(C(C)(C)C)cc2)sc1C(=O)O", "note": "[CBK297946]", "viability at 28.5 h, 10 µM": 88.1}, {"smiles": "O=C(NCc1cccnc1-n1cccn1)c1c[nH]c(C(=O)N2CCCC2)c1", "note": "[CBK298263]", "viability at 28.5 h, 10 µM": 99.1}, {"smiles": "COc1ccc(C)cc1C(O)CN1CCOC(c2ccc(F)cc2)C1", "note": "(stereo not drawn) [CBK298264]", "viability at 28.5 h, 10 µM": 95.5}, {"smiles": "CC(NC(=O)Nc1ccc(C(=O)NC(C)(C)C)cc1)c1cccc(Cl)c1", "note": "(stereo not drawn) [CBK298265]", "viability at 28.5 h, 10 µM": 87.8}, {"smiles": "CSc1nc(C)c(CCC(=O)Nc2ccc(N3CC(C)OC(C)C3)nc2)c(C)n1", "note": "(stereo not drawn) [CBK298266]", "viability at 28.5 h, 10 µM": 87.4}, {"smiles": "COc1ccc2cc(COC(=O)c3ccc([S+](C)[O-])cc3)c(Cl)nc2c1", "note": "(stereo not drawn) [CBK298267]", "viability at 28.5 h, 10 µM": 99.5}, {"smiles": "O=C(C1CC1)N1CCC(C(=O)N(Cc2ccco2)c2ccccc2)CC1", "note": "[CBK298269]", "viability at 28.5 h, 10 µM": 85.8}, {"smiles": "Cc1ccc(C2=CCN(C(=O)c3cccc(S(=O)(=O)N(C)C)c3)CC2)cc1", "note": "[CBK298273]", "viability at 28.5 h, 10 µM": 90.9}, {"smiles": "Cc1ncc(CN(C)C(C)C(=O)Nc2ccccc2N2CCCC2=O)s1", "note": "(stereo not drawn) [CBK298274]", "viability at 28.5 h, 10 µM": 92}, {"smiles": "Cc1ccc(Cc2cnc(NC(=O)c3ccoc3C)s2)cc1C", "note": "[CBK298277]", "viability at 28.5 h, 10 µM": 80.1}, {"smiles": "COc1ccc(OC)c(CN(C(=O)c2oc3ccc(F)cc3c2C)c2cnn(C)c2)c1", "note": "[CBK298278]", "viability at 28.5 h, 10 µM": 89.1}, {"smiles": "COc1ccc(-c2noc(COc3cccc(C(=O)O)c3)n2)c(OC)c1", "note": "[CBK298279]", "viability at 28.5 h, 10 µM": 101}, {"smiles": "Cc1ccc(Cn2ncc3c(C(=O)N4CCC(N(C)S(C)(=O)=O)CC4)cc(C)nc32)cc1", "note": "[CBK298280]", "viability at 28.5 h, 10 µM": 102}, {"smiles": "Cc1cc(Cc2cnc(NC(=O)C3CCS(=O)(=O)C3)s2)ccc1Br", "note": "(stereo not drawn) [CBK298281]", "viability at 28.5 h, 10 µM": 90}, {"smiles": "COc1ccc(SC(C)C(=O)N2CCN(c3ccc([N+](=O)[O-])nc3)CC2)cc1", "note": "(stereo not drawn) [CBK298282]", "viability at 28.5 h, 10 µM": 93.5}, {"smiles": "CN(Cc1cccnc1)C(=O)CSC(c1ccccc1)c1ccccc1", "note": "[CBK298284]", "viability at 28.5 h, 10 µM": 90.7}, {"smiles": "Cc1cn2nc(N3CCN(S(=O)(=O)c4ccccc4[N+](=O)[O-])CC3)sc2n1", "note": "[CBK298288]", "viability at 28.5 h, 10 µM": 111}, {"smiles": "CCOc1cc(-c2nc3sc(CC)cc3c(=O)[nH]2)ccc1OCC(=O)O", "note": "[CBK298291]", "viability at 28.5 h, 10 µM": 88.4}, {"smiles": "O=C(Nc1ncc(-c2ccccc2)s1)c1csc([N+](=O)[O-])c1", "note": "[CBK298293]", "viability at 28.5 h, 10 µM": 87.4}, {"smiles": "COC(=O)c1cccc(C(=O)Nc2ncc(-c3ccccc3)s2)c1", "note": "[CBK298294]", "viability at 28.5 h, 10 µM": 89.7}, {"smiles": "CN(C)C(CNS(=O)(=O)c1cc2c(cc1Br)NC(=O)CO2)c1ccc(F)cc1", "note": "(stereo not drawn) [CBK298296]", "viability at 28.5 h, 10 µM": 105}, {"smiles": "COc1cc(CNC(=O)c2ccc(O)nc2)ccc1OCc1ccncc1", "note": "[CBK298297]", "viability at 28.5 h, 10 µM": 96.9}, {"smiles": "Cc1nnc(C(C)Sc2nnc(-c3ccc(F)cc3)n2CC2CCCO2)o1", "note": "(stereo not drawn) [CBK298298]", "viability at 28.5 h, 10 µM": 94.4}, {"smiles": "Cc1cc(C(=O)NCc2ccnc(N3CCOCC3)c2)c(C)n1-c1cccc(Cl)c1", "note": "[CBK298301]", "viability at 28.5 h, 10 µM": 81.9}, {"smiles": "CCN(CC)CCn1c(NC(=O)c2c(Cl)nc3ccccn23)nc2ccccc21", "note": "[CBK298305]", "viability at 28.5 h, 10 µM": 107}, {"smiles": "CN(Cc1cc(Br)cs1)C(=O)CCN1C(=O)COc2ccccc21", "note": "[CBK298308]", "viability at 28.5 h, 10 µM": 90}, {"smiles": "CCc1c(C(=O)NCc2cccnc2-n2cncn2)cnn1-c1ccc(OC)nn1", "note": "[CBK298309]", "viability at 28.5 h, 10 µM": 90.5}, {"smiles": "Cc1cccn2cc(COC(=O)c3ccc(F)cc3N)nc12", "note": "[CBK298310]", "viability at 28.5 h, 10 µM": 54.1}, {"smiles": "CCOc1ccc(C(=O)N2CCN(S(=O)(=O)c3ccc(C)cc3C)CC2)cn1", "note": "[CBK298313]", "viability at 28.5 h, 10 µM": 93.3}, {"smiles": "COc1ccc(CC(=O)O)cc1S(=O)(=O)Nc1ccc(SC)cc1", "note": "[CBK298315]", "viability at 28.5 h, 10 µM": 81}, {"smiles": "Cc1nc([N+](=O)[O-])cn1CCC(=O)Nc1ccccc1Oc1ccccc1Cl", "note": "[CBK298319]", "viability at 28.5 h, 10 µM": 101}, {"smiles": "O=C(NCC(O)COc1ccccc1)c1cnn2c(-c3ccccc3)ccnc12", "note": "(stereo not drawn) [CBK298320]", "viability at 28.5 h, 10 µM": 99}, {"smiles": "Cc1ccc(CC(C#N)Sc2nc(CN3CCOCC3)nc3ccccc23)cc1", "note": "(stereo not drawn) [CBK298321]", "viability at 28.5 h, 10 µM": 82}, {"smiles": "Cc1ccc(-c2nc(C)c(C(=O)NCc3ccnc(-n4ccnc4)c3)s2)o1", "note": "[CBK298322]", "viability at 28.5 h, 10 µM": 105}, {"smiles": "O=C(Nc1ccc(Oc2ncccn2)cc1)c1csc(-c2ccccc2)n1", "note": "[CBK298324]", "viability at 28.5 h, 10 µM": 85.5}]}]}
